Tested on: γ-secretase
Assay: Cellular γ-secretase assay (inhibition of Aβ42 secretion, AlphaLisa)
Type: cell-based
Details: human neuroglioma H4 cells overexpressing human APP695 Swedish double mutation, 24 hr compound incubation
Protocol: Cellular γ-Secretase Assay
Human neuroglioma H4 cells overexpressing human APP695 with the Swedish double mutation (K595N/M596L) were plated at 30,000 cells/well/100 μl in 96-well plates in IMDM media containing 10% FCS, 0.2 mg/l Hygromycin B and incubated at 37° C., 5% CO2.
3-4 hr post plating, compounds are a diluted in media and 50 μl is added as 1.5-fold concentrate to achieve the final concentration. Compound incubation is performed for 24 hr. Final doses typically range from 4 μm down to 0.0013 μm in half-log steps resulting in a eight point dose response curve.
Appropriate controls using vehicle only and reference compound were applied to this assay. The final concentration of Me2SO was 0.4%.
After incubation at 37° C., 5% CO2, the supernatant was subjected to quantification of secreted Aβ42 by the means of an AlphaLisa assay kit (Human Amyloid beta 1-42 Kit: Cat # AL203C, Perkin Elmer). 20 μl of the cell culture supernatant was transferred to an assay plate. Then 10 μl of a mixture of the AlphaLisa coupled capture antibody and the biotinylated detection antibody was added and incubated for 3 hours at room temperature while softly shaking the assay plate. After a further addition of 20 μl of the Donor beads the assay plate was incubated for 30 min at room temperature and constant shaking without exposure to direct light. The assay plate was then read on a Paradigm AlphaLisa Reader using the build-in program with excitation at 680 nm and emission at […].
The measured signals were then used to calculate IC50 values for inhibition of Aβ42 secretion by nonlinear regression fit analysis using XLfit 5.3 software (IDBS).

`COc1cc(Nc2nc3n(n2)CCCN3c2ccc(F)c(F)c2F)ccc1-n1cnc(C)n1` [Example 16, N-[3-methoxy-4-(3-methyl-1,2,4-triazol-1-yl)phenyl]-4-(2,3,4-trifluorophenyl)-6,7-dihydro-5H-[1,2,4]triazolo[1,5-a]pyrimidin-2-amine] and `COc1cc(Nc2nc3n(n2)CCCCN3c2ccc(F)c(F)c2)ccc1-n1cnc(C)n1` [Example 8, 4-(3,4-difluorophenyl)-N-[3-methoxy-4-(3-methyl-1,2,4-triazol-1-yl)phenyl]-5,6,7,8-tetrahydro-[1,2,4]triazolo[1,5-a][1,3]diazepin-2-amine] are within 1.5-fold of each other in EC50: 32.9 nM for the first, 35.8 nM for the second.

First: COc1cc(Nc2nc3n(n2)CCCN3c2cccc(F)c2)ccc1-n1cnc(Cl)c1 [Example 32, N-[4-(4-chloroimidazol-1-yl)-3-methoxy-phenyl]-4-(3-fluorophenyl)-6,7-dihydro-5H-[1,2,4]triazolo[1,5-a]pyrimidin-2-amine]
Second: COc1cc(Nc2nc3n(n2)CCN3c2ccc(F)c(F)c2)ccc1-n1cnc(Cl)c1 [Example 46, N-[4-(4-chloroimidazol-1-yl)-3-methoxy-phenyl]-4-(3,4-difluorophenyl)-5,6-dihydroimidazo[1,2-b][1,2,4]triazol-2-amine]
The EC50 of the first is 2.9-fold lower: 14.1 nM for the first, 40.4 nM for the second.

First: COc1cc(Nc2nc3n(n2)CCCN3c2ccc(F)cc2)cnc1-n1cnc(Cl)c1 [Example 38, N-[6-(4-chloroimidazol-1-yl)-5-methoxy-3-pyridyl]-4-(4-fluorophenyl)-6,7-dihydro-5H-[1,2,4]triazolo[1,5-a]pyrimidin-2-amine]
Second: N#Cc1cc(Nc2nc3n(n2)CCCN3c2ccc(F)cc2)ccc1-n1cnc(Cl)c1 [Example 35, 2-(4-chloroimidazol-1-yl)-5-[[4-(4-fluorophenyl)-6,7-dihydro-5H-[1,2,4]triazolo[1,5-a]pyrimidin-2-yl]amino]benzonitrile]
The EC50 of the first is 1.5-fold lower: 13.8 nM for the first, 21 nM for the second.

`Fc1ccc(N2CCCn3nc(Nc4ccc(-n5cnc(Cl)c5)cc4)nc32)cc1F` [Example 23, N-[4-(4-chloroimidazol-1-yl)phenyl]-4-(3,4-difluorophenyl)-6,7-dihydro-5H-[1,2,4]triazolo[1,5-a]pyrimidin-2-amine] and `Fc1ccc(N2CCCn3nc(Nc4ccc(-n5cnc(Cl)c5)c(F)c4)nc32)cc1F` [Example 18, N-[4-(4-chloroimidazol-1-yl)-3-fluoro-phenyl]-4-(3,4-difluorophenyl)-6,7-dihydro-5H-[1,2,4]triazolo[1,5-a]pyrimidin-2-amine] are within 1.5-fold of each other in EC50: 31.2 nM for the first, 22.5 nM for the second.

`Cc1ncc(-c2ccc(Nc3nc4n(n3)CCCN4c3ccc(F)c(F)c3)cc2C#N)o1` [Example 27, 5-[[4-(3,4-difluorophenyl)-6,7-dihydro-5H-[1,2,4]triazolo[1,5-a]pyrimidin-2-yl]amino]-2-(2-methyloxazol-5-yl)benzonitrile] and `COc1cc(Nc2nc3n(n2)CCCN3c2ccc(F)c(F)c2)ccc1-c1cnc(C)o1` [Example 4, 4-(3,4-difluorophenyl)-N-[3-methoxy-4-(2-methyloxazol-5-yl)phenyl]-6,7-dihydro-5H-[1,2,4]triazolo[1,5-a]pyrimidin-2-amine] are within 1.5-fold of each other in EC50: 20.2 nM for the first, 14.3 nM for the second.

Compared with `COc1cc(Nc2nc3n(n2)CCCN3c2ccc(F)c(F)c2)ccc1-c1cc(C)n[nH]1` [Example 25, 4-(3,4-difluorophenyl)-N-[3-methoxy-4-(3-methyl-1H-pyrazol-5-yl)phenyl]-6,7-dihydro-5H-[1,2,4]triazolo[1,5-a]pyrimidin-2-amine], `COc1cc(Nc2nc3n(n2)CCCCN3c2ccc(F)c(F)c2)ccc1-c1cnc(C)o1` [Example 7, 4-(3,4-difluorophenyl)-N-[3-methoxy-4-(2-methyloxazol-5-yl)phenyl]-5,6,7,8-tetrahydro-[1,2,4]triazolo[1,5-a][1,3]diazepin-2-amine] is 4.4-fold lower in EC50: 58.5 nM for the first, 13.2 nM for the second.

Going from `COc1cc(Nc2nc3n(n2)CCCN3c2ccc(F)cc2)ccc1-n1cnc(C)n1` [Example 33, 4-(4-fluorophenyl)-N-[3-methoxy-4-(3-methyl-1,2,4-triazol-1-yl)phenyl]-6,7-dihydro-5H-[1,2,4]triazolo[1,5-a]pyrimidin-2-amine] to `COc1cc(Nc2nc3n(n2)CCCN3c2ccc(F)cc2)ccc1-c1cnc(C)o1` [Example 43, 4-(4-fluorophenyl)-N-[3-methoxy-4-(2-methyloxazol-5-yl)phenyl]-6,7-dihydro-5H-[1,2,4]triazolo[1,5-a]pyrimidin-2-amine], the EC50 falls from 35.2 nM to 12.6 nM (2.8-fold).

Going from `COc1cc(Nc2nc3n(n2)CCCN3c2ccc(F)c(F)c2)ccc1-n1cnc(C(F)(F)F)c1` [Example 3, 4-(3,4-difluorophenyl)-N-[3-methoxy-4-[4-(trifluoromethyl)imidazol-1-yl]phenyl]-6,7-dihydro-5H-[1,2,4]triazolo[1,5-a]pyrimidin-2-amine] to `COc1cc(Nc2nc3n(n2)CCCCN3c2ccc(F)c(F)c2)ccc1-n1cnc(C(F)(F)F)c1` [Example 10, 4-(3,4-difluorophenyl)-N-[3-methoxy-4-[4-(trifluoromethyl)imidazol-1-yl]phenyl]-5,6,7,8-tetrahydro-[1,2,4]triazolo[1,5-a][1,3]diazepin-2-amine], the EC50 rises from 37 nM to 61.9 nM (1.7-fold).

Going from `Cc1ncn(-c2ccc(Nc3nc4n(n3)CCCN4c3ccc(F)c(F)c3)cc2)n1` [Example 29, 4-(3,4-difluorophenyl)-N-[4-(3-methyl-1,2,4-triazol-1-yl)phenyl]-6,7-dihydro-5H-[1,2,4]triazolo[1,5-a]pyrimidin-2-amine] to `Cc1ncn(-c2ccc(Nc3nc4n(n3)CCCN4c3ccc(F)c(F)c3)cc2OC(F)F)n1` [Example 1, N-[3-(difluoromethoxy)-4-(3-methyl-1,2,4-triazol-1-yl)phenyl]-4-(3,4-difluorophenyl)-6,7-dihydro-5H-[1,2,4]triazolo[1,5-a]pyrimidin-2-amine], the EC50 falls from 56.1 nM to 16.6 nM (3.4-fold).

`COc1cc(Nc2nc3n(n2)CCN3c2ccc(C(F)(F)F)cc2)ccc1-n1cnc(Cl)c1` [Example 44, N-[4-(4-chloroimidazol-1-yl)-3-methoxy-phenyl]-4-[4-(trifluoromethyl)phenyl]-5,6-dihydroimidazo[1,2-b][1,2,4]triazol-2-amine] and `Fc1ccc(N2CCCn3nc(Nc4ccc(-n5cncn5)c(F)c4)nc32)cc1F` [Example 14, 4-(3,4-difluorophenyl)-N-[3-fluoro-4-(1,2,4-triazol-1-yl)phenyl]-6,7-dihydro-5H-[1,2,4]triazolo[1,5-a]pyrimidin-2-amine] are within 1.5-fold of each other in EC50: 65.4 nM for the first, 89.9 nM for the second.

`Cc1ncc(-c2ncc(Nc3nc4n(n3)CCCN4c3ccc(F)cc3)cc2F)o1` [Example 39, N-[5-fluoro-6-(2-methyloxazol-5-yl)-3-pyridyl]-4-(4-fluorophenyl)-6,7-dihydro-5H-[1,2,4]triazolo[1,5-a]pyrimidin-2-amine] and `COc1cc(Nc2nc3n(n2)CCCN3c2ccc(F)c(F)c2F)ccc1-c1cnc(C)o1` [Example 15, N-[3-methoxy-4-(2-methyloxazol-5-yl)phenyl]-4-(2,3,4-trifluorophenyl)-6,7-dihydro-5H-[1,2,4]triazolo[1,5-a]pyrimidin-2-amine] are within 1.5-fold of each other in EC50: 17.5 nM for the first, 14.4 nM for the second.

`Cc1ncnn1-c1ccc(Nc2nc3n(n2)CCCN3c2ccc(F)c(F)c2)cc1F` [Example 13, 4-(3,4-difluorophenyl)-N-[3-fluoro-4-(5-methyl-1,2,4-triazol-1-yl)phenyl]-6,7-dihydro-5H-[1,2,4]triazolo[1,5-a]pyrimidin-2-amine] gave an EC50 of 24.8 nM.
